Assay results: patent publication US5905077A, “Inhibitors of HIV protease useful for the treatment of AIDS” (Eli Lilly and Company, priority 1997, dated 1999)
In brackets after ≈: the same amount, converted by molar mass. Like-named read-outs stand apart in the source and are kept apart here. One block for each compound: values may come before it.

Biological target: T1, HIV-1 protease (Human immunodeficiency virus type 1 group M subtype B, UniProt P04585)
T1 construct: Purified HIV-1 protease was obtained as described above; made in house; host or cells: E. coli K12 L507/pHP10D (NRRL B-18560)
Assay: biochemical
Assay type: biochemical
Protocol: E. Fluorescence HIV-1 Protease Inhibitor Assay
The following buffers and solutions are used in the Fluorescence HIV-1 Protease Inhibitor Assay:
To each well of a round bottom, 96-well plate is added 20 μL of the Enzyme Solution followed by 10 μL of the compound to be evaluated in a 20% aqueous dimethylsulfoxide solution. Purified HIV-1 protease was obtained as described above. The resulting solution is incubated for one hour at room temperature and then 20 μL of a solution containing the substrate, prepared above, in MES-ALB buffer (1.5 μl/mL) is added to each well. The solutions are then incubated for 16 hours at room temperature and then each well is diluted with 150 μL of MES-ALB buffer.
To each well of a second round bottom, 96-well Pandex plate is added 25 μL of the Avidin Coated Beads Solution. Then, to each well is added 25 μL of the diluted incubation solutions, prepared above. The solutions are mixed thoroughly and the plates are loaded into a Pandex® machine, washed, evacuated and read. Sample detection was performed by excitation at 485 nm, reading the resulting epifluorescence at 535 nm.

Structure (SMILES): CC(C)(C)NC(=O)[C@@H]1CN(Cc2cccnc2)CCN1C[C@@H](O)[C@H](Cc1ccccc1)NC(=O)[C@@H](CS(=O)(=O)c1ccc(F)cc1)NS(C)(=O)=O (relative stereo) [Example 46]
IC50: 1.23 nM

Structure (SMILES): CC(=O)NC(CSCc1ccccc1)C(=O)NC(Cc1ccccc1)C(O)CN1CC2CCCCC2CC1C(=O)NC(C)(C)C (stereo not drawn) [Example 33, [2R-(2R*,3R*,6R*,3'S*,4a'S*,8a'S*)]-N(t-Butyl)-2'-[2-hydroxy-3-phenylmethyl-4-aza-5-oxo-6-N(ethanoyl)amino-7-phenylmethylthio]heptyl decahydroisoquinoline-3'-carboxamide]
IC50 (pH 5.5): 1.1 nM

Structure (SMILES): CC(C)(C)NC(=O)[C@@H]1C[C@@H]2CCCC[C@@H]2CN1C[C@@H](O)[C@H](Cc1ccccc1)NC(=O)[C@@H](CSc1ccc(F)cc1)NS(C)(=O)=O [Example 37, [2R-(2R*,3R*,6R*,3'S*,4a'S*,8a'S*)]-N(t-Butyl)-2'-[2-hydroxy-3-phenylmethyl-4-aza-5-oxo-6-N(methylsulfonyl)amino-7-p-fluoro-phenylthio]heptyl decahydroisoquinoline-3'-carboxamide]
IC50: 5.32 nM

Structure (SMILES): CC(C)(C)NC(=O)[C@@H]1C[C@@H]2CCCC[C@@H]2CN1C[C@@H](O)[C@H](Cc1ccccc1)NC(=O)[C@@H](C[S+]([O-])c1ccc(F)cc1)NS(C)(=O)=O (stereo partly drawn) [Example 38, [2R-(2R*,3R*,6R*,3'S*,4a'S*,8a'S*)]-N(t-Butyl)-2'-[2-hydroxy-3-phenylmethyl-4-aza-5-oxo-6-N(methylsulfonyl)amino-7-p-fluoro-phenylsulfinyl]heptyl decahydroisoquinoline-3'-carboxamide]
IC50: 0.722 nM

Structure (SMILES): CC(C)(C)NC(=O)[C@@H]1C[C@@H]2CCCC[C@@H]2CN1C[C@@H](O)[C@H](Cc1ccccc1)NC(=O)[C@@H](CS(=O)(=O)c1ccc(F)cc1)NS(C)(=O)=O [Example 39, [2R-(2R*,3R*,6R*,3'S*,4a'S*,8a'S*)]-N(t-Butyl)-2'-[2-hydroxy-3-phenylmethyl-4-aza-5-oxo-6-N(methylsulfonyl)amino-7-p-fluoro-phenylsulfonyl]heptyl decahydroisoquinoline-3'-carboxamide]
IC50: 0.846 nM

Structure (SMILES): CC(C)(C)NC(=O)[C@@H]1C[C@@H]2CCCC[C@@H]2CN1C[C@@H](O)[C@H](Cc1ccccc1)NC(=O)[C@@H](CSc1ccc2ccccc2c1)NS(C)(=O)=O [Example 41, [2R-(2R*,3R*,6R*,3'S*,4a'S*,8a'S*)]-N(t-Butyl)-2'-[2-hydroxy-3-phenylmethyl-4-aza-5-oxo-6-N(methylsulfonyl)amino-7-naphth-2-ylthio]heptyl decahydroisoquinoline-3'-carboxamide]
IC50: 7.76 nM

Structure (SMILES): CC(C)(C)NC(=O)[C@@H]1C[C@@H]2CCCC[C@@H]2CN1C[C@@H](O)[C@H](CSc1ccccc1)NC(=O)[C@@H](CS(=O)(=O)c1ccc(F)cc1)NS(C)(=O)=O [Example 47]
IC50: 10.9 nM

Structure (SMILES): CC(C)(C)NC(=O)[C@@H]1C[C@@H]2CCCC[C@@H]2CN1C[C@@H](O)[C@H](CSc1ccccc1)NC(=O)[C@@H](CS(=O)(=O)c1ccc2ccccc2c1)NS(C)(=O)=O [Example 48]
IC65 (read-out: Fluorescence Assay IC65 (65% inhibition at 0.16 ng/mL)): 0.16 ng/mL (≈ 0.207 nM)

Structure (SMILES): CC(=O)N[C@H](CSCc1ccccc1)C(=O)N[C@@H](Cc1ccccc1)[C@H](O)CN1C[C@H]2CCCC[C@H]2C[C@H]1C(=O)NC(C)(C)C [Example 49, [2R-(2R*,3R*,6R*,3'S*,4a'S*,8a'S*)]-N(t-Butyl)-2'-[2-hydroxy-3-phenylmethyl-4-aza-5-oxo-6-N(ethanoyl)amino-7-phenylmethylthio]heptyl decahydroisoquinoline-3'-carboxamide]
IC50: 1.1 nM

Other lines, results leading:

IC50: 0.426 nM
Structure (SMILES): CC(=O)N[C@H](CS(=O)(=O)c1ccc2ccccc2c1)C(=O)N[C@@H](Cc1ccccc1)[C@H](O)CN1C[C@H]2CCCC[C@H]2C[C@H]1C(=O)NC(C)(C)C [Example 36, [2R-(2R*,3R*,6R*,3'S*,4a'S*,8a'S*)]-N(t-Butyl)-2'-[2-hydroxy-3-phenylmethyl-4-aza-5-oxo-6-N(ethanoyl)amino-7-naphth-2ylsulfonyl]heptyl decahydroisoquinoline-3'-carboxamide]

IC50: 0.635 nM
Structure (SMILES): CC(C)(C)NC(=O)[C@@H]1C[C@@H]2CCCC[C@@H]2CN1C[C@@H](O)[C@H](Cc1ccccc1)NC(=O)[C@@H](CS(=O)(=O)c1ccc(F)cc1)NS(C)(=O)=O [Example 40, [2R-(2R*,3R*,6R*,3'S*,4a'S*,8a'S*)]-N(t-Butyl)-2'-[2-hydroxy-3-phenylmethyl-4-aza-5-oxo-6-N(methylsulfonyl)amino-7-p-fluoro-phenylsulfonyl]heptyl decahydroisoquinoline-3'-carboxamide]

IC50: 0.621 nM
Structure (SMILES): CC(C)(C)NC(=O)[C@@H]1C[C@@H]2CCCC[C@@H]2CN1C[C@@H](O)[C@H](Cc1ccccc1)NC(=O)[C@@H](C[S+]([O-])c1ccc2ccccc2c1)NS(C)(=O)=O (stereo partly drawn) [Example 42, [2R-(2R*,3R*,6R*,3'S*,4a'S*,8a'S*)]-N(t-Butyl)-2'-[2-hydroxy-3-phenylmethyl-4-aza-5-oxo-6-N(methylsulfonyl)amino-7-naphth-2-ylsulfinyl]heptyl decahydroisoquinoline-3'-carboxamide]

IC50: 0.202 nM
Structure (SMILES): CC(C)(C)NC(=O)[C@@H]1C[C@@H]2CCCC[C@@H]2CN1C[C@@H](O)[C@H](Cc1ccccc1)NC(=O)[C@@H](CS(=O)(=O)c1ccc2ccccc2c1)NS(C)(=O)=O [Example 44, [2R-(2R*,3R*,6R*,3'S*,4a'S*,8a'S*)]-N(t-Butyl)-2'-[2-hydroxy-3-phenylmethyl-4-aza-5-oxo-6-N(methylsulfonyl)amino-7-naphth-2-ylsulfonyl]heptyl decahydroisoquinoline-3'-carboxamide]
